Four compounds from patent US11597703B2, “Caspase inhibitors and methods of use thereof” (Histogen Inc., priority 2019, dated 2023) can be followed below.

One experiment deals with T1, Caspase-1 (Homo sapiens, UniProt P29466).
T1 construct: purchased Enzo Biosciences
T1 sequence (P29466 120-297 limits assumed): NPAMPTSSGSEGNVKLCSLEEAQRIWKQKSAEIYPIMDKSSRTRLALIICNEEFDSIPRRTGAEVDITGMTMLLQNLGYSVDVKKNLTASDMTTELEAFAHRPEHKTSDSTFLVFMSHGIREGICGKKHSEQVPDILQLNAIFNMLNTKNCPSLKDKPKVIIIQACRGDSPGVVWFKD
T1 sequence (P29466 317-404 limits assumed): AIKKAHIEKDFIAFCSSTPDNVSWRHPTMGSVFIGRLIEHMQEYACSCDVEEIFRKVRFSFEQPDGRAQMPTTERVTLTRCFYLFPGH
The experiment in a line: Caspase-1 enzyme inhibition assay (Ac-YVAD-pNA substrate), IC50. Format: biochemical. The method in brief: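 Buffer was 50 mM HEPES pH 7.4, 100 mM NaCl, 0.1% CHAPS, 1 mM EDTA, 10% glycerol and 10 mM DTT. Caspase-1 was reacted with 200 μM Ac-YVAD-pNA (final). Release of p-nitroaniline was followed continuously at 405 nm, and rates were taken from the linear slope (ε 10,500 M-1 cm-1).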

The next experiment deals with Jurkat cells. Nature of the experiment: Prevention of Fas-induced apoptosis in Jurkat cells (WST-8). It is filed as cell-based. The following applies: Homo sapiens, 10 micromolar, read-out: % Prevention of Fas - induced Jurkat cell apoptosis at 10 micromolar. On the procedure: Compounds of the present invention were evaluated in Jurkat cells, a human T-lymphocyte cell line, to evaluate compounds ability to inhibit apoptotic cell death. Jurkat cells, Clone E6-1 (ATCC TIB-152) were grown in culture maintain a cell density between 0.5-2 million cells/mL. Cells were tested for viability and countion with typan blue stain before use. Test compounds were addedd to 96 well plates and Jurkat cells were added at a concentration of approximately 100,000 cells per well and mixed thoroughly by action of pipetting. Plated cells were incubated for 1 hour at 37 degrees C. under an atmosphere of 5% CO2. Anti-Fas antibody was added and mixed by pipet action. Plates were incubated for 20 hours at 37 degrees C. under an atmosphere of 5% CO2. 10 microliters of thawed WST-8 solution was added to each well and incubated for 4 hours. Absorbance was measured at 450 nm and control reading at […] using a SpectraMax ID5 plate reader. Apoptotic cell death is executed by caspases 3, 7 and 6. Compounds that lack activity against these caspases will not prevent the death of Jurkat cells and is a functional test of selectivity for inflammatory over apoptotic caspases.
IC50 values to protect against Fas induced apoptosis and improve survival of Jurkat cells were determined from dose response studies.
A general note: Tetrazolium dyes change colour on reduction, which living cells bring about.

The target in another experiment is T2, Caspase 6 (Homo sapiens, UniProt P55212).
T2 construct: purchased Enzo Biosciences
T2 sequence (P55212 24-179 limits assumed): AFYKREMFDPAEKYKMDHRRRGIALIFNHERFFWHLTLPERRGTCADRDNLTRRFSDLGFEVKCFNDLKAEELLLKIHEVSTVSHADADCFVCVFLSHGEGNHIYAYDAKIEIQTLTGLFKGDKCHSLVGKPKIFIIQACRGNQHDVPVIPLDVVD
T2 sequence (P55212 194-293 limits assumed): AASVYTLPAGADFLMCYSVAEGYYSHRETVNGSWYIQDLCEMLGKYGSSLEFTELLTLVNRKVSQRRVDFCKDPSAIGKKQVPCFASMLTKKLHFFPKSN
Nature of the experiment: Caspase 6 enzymatic inhibition assay, IC50. Format: biochemical. The settings on record: read-out: Caspase 6 enzyme inhibition IC50. The method in brief: (§1)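 Recombinant human caspase-3, -6 and -7 enzymes were assayed following the supplier's kit protocol, and compound inhibition of each enzyme's activity was expressed as an IC50.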

The target of another experiment is T3, Caspase 7 (Homo sapiens, UniProt P55210).
T3 construct: purchased Enzo Biosciences
T3 sequence (P55210 24-198 limits assumed): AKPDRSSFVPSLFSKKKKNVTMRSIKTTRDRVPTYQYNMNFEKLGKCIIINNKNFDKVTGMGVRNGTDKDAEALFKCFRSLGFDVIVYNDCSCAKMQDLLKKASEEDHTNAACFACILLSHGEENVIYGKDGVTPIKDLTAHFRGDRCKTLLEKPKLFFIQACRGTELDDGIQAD
T3 sequence (P55210 207-303 limits assumed): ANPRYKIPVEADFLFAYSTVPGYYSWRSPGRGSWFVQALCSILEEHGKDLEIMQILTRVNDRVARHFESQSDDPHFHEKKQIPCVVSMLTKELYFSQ
The experiment in a line: Caspase 7 enzymatic inhibition assay, IC50. The following applies: read-out: Caspase 7 enzyme inhibition IC50. Format: biochemical. The method in brief: as §1

The next experiment addresses T4, Caspase-3 (Homo sapiens, UniProt P42574).
T4 construct: purchased Enzo Biosciences
T4 sequence (P42574 29-175 limits assumed): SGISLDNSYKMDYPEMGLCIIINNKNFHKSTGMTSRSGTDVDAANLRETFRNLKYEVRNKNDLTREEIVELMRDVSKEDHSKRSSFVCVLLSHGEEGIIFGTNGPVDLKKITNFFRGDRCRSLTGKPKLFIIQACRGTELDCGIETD
T4 sequence (P42574 176-277 limits assumed): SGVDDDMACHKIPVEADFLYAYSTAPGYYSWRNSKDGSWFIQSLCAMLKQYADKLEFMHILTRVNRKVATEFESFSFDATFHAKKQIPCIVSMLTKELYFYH
Nature of the experiment: Caspase-3 enzymatic inhibition assay, IC50. It is filed as biochemical. The settings on record: read-out: Caspase 3 enzyme inhibition IC50. The method in brief:
as §1

The next experiment deals with IL-1β. The experiment in a line: Inhibition of LPS-stimulated IL-1β in THP-1 cells (ELISA). The following applies: Homo sapiens, 10 micromolar, read-out: Percent Inhibition of IL1-β. Format: cell-based, human. Here is the method:
Compounds in the present invention were tested in THP-1 cells, a human monocyte cell line, to assess the inhibition of the inflammatory cytokine IL-1β. THP-1 cells (ATCC TIB-202) were grown in culture and seeded in 96 well plates at a concentration of 200,000 cells per well with a total volume of 150 μL. Plated cells were incubated overnight at 37 degrees C. under an atmosphere of 5% CO2. Media was removed from cells which were washed with PBS. Test compounds were diluted in DMSO stock solution and serially diluted appropriately for initial screening and IC50 determinations. LPS in serum free media (140 μL of […]) was added to each well to stimulate IL-1β production. IL-1β was measured by ELISA assay kit (R&D Systems) per the manufacturers instructions.
IC50 values for the inhibition of IL-1 in THP 1 cells were determined from dose response studies.

In the case of `O=C(O)CC[C@H](NC(=O)C1(NC(=O)C(=O)Nc2c(F)cccc2F)CCCC1)C(=O)COc1c(F)c(F)cc(F)c1F` [Example 14, (S)-4-(1-(2-((2,6-Difluorophenyl)amino)-2-oxoacetamido)cyclopentane-1-carboxamido)-5-oxo-6-(2,3,5,6-tetrafluorophenoxy)hexanoic acid], the IC50 (as a rule, the concentration at which inhibition is half-maximal) is at most 10 nM against Caspase-1, 100 to 1000 nM on Caspase 6, 100 to 1000 nM on Caspase 7 and 100 to 1000 nM on Caspase-3. The figures for the inhibition at 10 µM in the experiment on Jurkat cells and in the experiment on IL-1β were at most 10% and over 90%, respectively.
On to `C[C@H](NC(=O)C(=O)Nc1c(F)cccc1F)C(=O)N[C@@H](CCOC(=O)Oc1ccccc1)C(=O)COc1c(F)c(F)cc(F)c1F` [Example 7, (S)-3-((S)-2-(2-((2,6-Difluorophenyl)amino)-2-oxoacetamido)propanamido)-4-oxo-5-(2,3,5,6-tetrafluorophenoxy)pentyl phenyl carbonate], for which the 50% inhibitory concentration (IC50) at Caspase-1 was 10 to 100 nM; on Caspase 6 it was at least 1000 nM; at Caspase 7 it was at least 1000 nM; at Caspase-3, at least 1000 nM. Also, the inhibition at 10 µM in the experiment with Jurkat cells is at most 10%; in the experiment with IL-1β, 50 to 90%.
In the case of `C[C@H](NC(=O)C(=O)Nc1c(F)cccc1F)C(=O)N[C@@H](CCCC(=O)O)C(=O)COc1c(F)c(F)cc(F)c1F` [Example 13, (S)-5-((S)-2-(2-((2,6-Difluorophenyl)amino)-2-oxoacetamido)propanamido)-6-oxo-7-(2,3,5,6-tetrafluorophenoxy)heptanoic acid], the 50% inhibitory concentration (IC50) was 10 to 100 nM at Caspase-1, at least 1000 nM on Caspase 6, at least 1000 nM on Caspase 7 and at least 1000 nM on Caspase-3. For the same compound, the inhibition at 10 µM is at most 10% in the experiment with Jurkat cells and 50 to 90% with IL-1β.
Turning to `COCC[C@H](NC(=O)[C@H](C)NC(=O)C(=O)Nc1c(F)cccc1F)C(=O)COc1c(F)c(F)cc(F)c1F` [Example 5, N^1-(2,6-Difluorophenyl)-N^2—((S)-1-(((S)-5-methoxy-2-oxo-1-(2,3,5,6-tetrafluorophenoxy)pentan-3-yl)amino)-1-oxopropan-2-yl)oxalamide], the IC50 was 100 to 1000 nM on Caspase-1, at least 1000 nM on Caspase 6, at least 1000 nM at Caspase 7 and at least 1000 nM at Caspase-3. Besides, the figures for the inhibition at 10 µM in the experiment on Jurkat cells and in the experiment with IL-1β were at most 10% and 25 to 50%, respectively.
